Reference: US20100203114A1, “MICELLE ENCAPSULATION OF THERAPEUTIC AGENTS” (WARF - Wisconsin Alumni Research Foundation, priority 2007, published 2010)
Like-named read-outs stand apart in the source and are kept apart here.

How the values were obtained:
[1] = dogs; cited from earlier work
[2] = cited from earlier work
[3] = system: PC-3 human prostate cells; assay: In vitro cytotoxicity, resazurin dye; type: cell-based; conditions: Prostate cell, 72 hours
Experimental: (§1) In vitro cytotoxicity studies. […] Cell lines were plated in 96-well plates at an initial density of 3000 cells per well in 90 μL of appropriate media, and maintained at 37° C. under a 5% CO2 atmosphere. […] Drug-loaded micelles or micelles alone were formulated in MilliQ water (following dialysis of DMSO to form the micelles). It was not necessary to dilute the samples further before addition to wells. […] Following, the metabolic rate of cells was determined by using resazurin dye (Sigma-Aldrich).

[4] = system: MCF-7 human breast cancer cells; assay: In vitro cytotoxicity, resazurin dye; type: cell-based; conditions: MCF7, 72 hours
Experimental: as §1

[5] = 17-AAG loading in PEG-PLA micelles prepared by dialysis (HPLC); type: physicochemical
Experimental: Preparation and characterization of drug loaded PEG-PLA micelles. […] For example, 5 mg of 17-AAG and 45 mg of PEG-PLA (10:90 w/w) were dissolved in 10 mL DMAc. The resulting solution was dialyzed against H2O in 3500 MWCO tubing (SpectraPor). Resulting micelles were centrifuged at 5000 g's for 10 min to precipitate unincorporated drug. […] Micelle solutions were concentrated by rotary evaporation at reduced pressure at room temperature, followed by centrification (5000 g's for 10 minutes).
The loading experiments were investigated at 10% w/w to evaluate the suitability of PEG-PLA micelles for solubilizing 17-AAG.

[6] = system: MCF-7; conditions: reported by the National Cancer Institute; cited from earlier work

## C=CCNC1=C2C[C@@H](C)C[C@H](OC)[C@H](O)[C@@H](C)/C=C(\C)[C@H](OC(N)=O)[C@@H](OC)/C=C\C=C(/C)C(=O)NC(=CC1=O)C2=O [17-AAG, 17-allylamino-17-demethoxygeldanamycin]
[1]
  maximum tolerated dose: 100-200 mg/m^2/day
[2]; according to the National Cancer Institute
  solubility of 17-AAG: ~10 µg/mL
[2]
  aqueous solubility: about 0.1 mg/mL
[2]; neutral pH
  water solubility: about 0.1 mg/mL
[3]; n = 6, read-out: PC-3 IC50
  IC50: 74 ± 14 nM
[3]; read-out: IC50 in PC-3
  IC50: 74 ± 14 nM
[4]; n = 6, read-out: MCF-7 IC50
  IC50: 22 ± 14 nM
[4]; read-out: IC50 in MCF-7
  IC50: 22 ± 14 nM
[5]; 0.3 mM PEG-PLA solution
  mol 17-AAG:mol PEG-PLA: 0.73±0.09
[5]; 0.3 mM PEG-PLA solution, initial 17-AAG 0.45 mg/mL (11.4% w/w)
  17-AAG solubilized: 0.083 ± 0.012 mg/mL
[5]; 0.3 mM PEG-PLA, weight 17-AAG versus total weight of carrier
  17-AAG loaded: 0.024 ± 0.003 mg/mg
[5]; PEG-PLA (12:6 kDa) micelles
  17-AAG loading efficiency: 19±3 % w/w
[5]; PEG-PLA (12:12 kDa) micelles, with and without alpha-tocopherol
  drug loading: < 0.5 mg/mL
[5]; micelles incorporating 1:1 alpha-tocopherol to drug, even at 4° C.
  time after which drug precipitated out of solution: 4 to 5 h
[5]; total drug solubilized versus initial drug concentration
  Efficiency: 19 ± 3% loaded
[6]
  IC50: 12.6 nM

## CO[C@H]1/C=C\C=C(/C)C(=O)NC2=CC(=O)C(NCCN(C)C)=C(C[C@@H](C)C[C@H](OC)[C@H](O)[C@@H](C)/C=C(\C)[C@@H]1OC(N)=O)C2=O [17-DMAG, 17-dimethylamino-ethylamino-17-demethoxygeldanamycin]
[1]
  maximum tolerated dose: 8 mg/m^2/day
